Reference: paper PMC8901748, “A novel prostaglandin E receptor 4 (EP4) small molecule antagonist induces articular cartilage regeneration” (Cell Discovery, 2022)
Read-outs that look alike come from different tables or passages of the source.

Key:
[1] = test system: primary articular chondrocytes; assay: Cell viability by CCK-8 assay; type: cell-based, mouse; details: 72 h, read-out: IC50 (cell viability, toxicity in chondrocytes)
Procedure: The cell viability was evaluated by CCK-8 assay (Dojindo Molecular Technologies). Primary chondrocytes were plated in the 96-well plates and treated with the EP4 antagonists or DMSO for 72 h. A total of 10 μl CCK-8 was added to each well, the cells were incubated in the presence of CCK-8 for 2–3 h. The optical density (OD) of each well at 450 nm was recorded on a Microplate Reader (SPECTRA MAX190). The absorbance values were normalized by subtracting blank values of […]. The cell viability (% of control) is calculated as the percentage of (ODtest − ODblank)/(ODcontrol − ODblank). The 50% inhibitory concentration (IC50) was calculated with GraphPad Prism software using the sigmoidal dose-response function.
(§1) ATDC5 cell line was purchased from Riken BioResource Center (Tsukuba, Japan) and grown in a 1:1 mixture of DMEM/F12 medium (Corning, 10-092-CVR) supplemented with 5% fetal bovine serum (Gibco, 10099, USA) and 1% penicillin-streptomycin solution (Life Technologies). Cells were maintained at 37 °C under 5% CO2. Primary chondrocytes were obtained from knee joint cartilage of newborn mice. Knee joints were dissected from the tibia plateau and femoral condyle articular cartilage of mouse pups and digested in 0.1% collagenase type II (Sigma) overnight at 37 °C and chondrocytes were harvested by centrifugation. Primary chondrocytes were cultured at a density of 5 × 10^3 cells per ml at 37 °C with 5% CO2. DMEM/F12 medium with 10% fetal bovine serum (FBS) and 1% penicillin–streptomycin was used to culture the primary chondrocytes. Chondrogenic differentiation were induced with chondrogenic medium, which contains insulin-transferrin-selenium (ITS) (Sigma, I3146), 10 ng/ml TGF-β3 (PEPROTECH, 100-36E, USA), 100 nM Dexamethasone (Sigma, D4902), 50 μg/ml VC (Sigma), 1 mM sodium pyruvate (Sigma) and 40 μg/ml proline (Sigma), and/or treatment with rmIL-1β (R&D, 401-ML/CF), TNFα (PEPROTECH, 300-01A-50) in DMEM/F12 for indicated days. Western blotting was performed according to standard protocols. Antibodies used were: rabbit anti-Mmp3 (1:1000, HuaBio), rabbit anti-Mmp13 (1:500, abcam, ab39012), rabbit anti-p-CREB (1:2000, Cell Signaling Technology, 87G3), rabbit anti-CREB (1:2000, Cell Signaling Technology, 48H2), mouse anti-GAPDH (1:5000; Sigma-Aldrich, G8795), rabbit anti-Col2 (Abcam, Ab34712), rabbit anti-STAT3 (1:2000; Abcam, ab68153), rabbit anti-p-STAT3 (Y705) (1:2000; Abcam, ab76315), rabbit anti -p65 (1:1000; CST, 3034), rabbit anti-p-p65 (1:1000; CST, 3033), and rabbit anti-IκBα (1:1000; Abways, CY5026).

zebrafish embryos = assay: Zebrafish embryo toxicity assay; design: Mortality / Deformities / Hatching: dose or concentration left out as unconfirmed; details: for Mortality: zebrafish embryos; for Deformities / Hatching: zebrafish
Procedure: A breeding stock of zebrafish at the age of 6–24 months is used for egg production. Fertilized eggs were collected and viable eggs were transferred to the 12-well plate at 26 °C. Fertilized eggs between the 4-cell and 128-cell stages be used for the toxicity test, with ten fertilized eggs per concentration and three replicates of each concentration, a total of 30 eggs for each concentration. […] DMSO was added as vehicle control. Hatching, morphological abnormalities and survival were assessed 24 and 72 h of post-fertilization (dpf) in zebrafish exposed to the chemicals.

[2] = test system: Sox9 promoter-Luc in ATDC5 cells; assay: Sox9 promoter-Luc luciferase reporter assay; type: cell-based, mouse; details: 10 μM H89, 30 μM HL-43, 6 h
Procedure: (§2) Six firefly luciferase reporters were used in the Luciferase assay, including CRE-Luc (PathDetect CRE cis-Reporting System; Stratagene, La Jolla CA) driven by a basic promoter (TATA box) plus four repeats of CRE; Sox9 promoter-Luc contains human SOX9 proximal promoter region (−1034 bp to +67 bp)[45]; 4 × 48-p89-Luc, mouse Col2a1 minimal promoter. AP-1-Luc, Nf-κb-Luc, STAT-Luc were obtained from Stratagene. Chondrocytes were cultured in 24-well plates and 300 ng firefly luciferase reporter constructs were transiently transfected using transfection reagent TransExellent-DNA (Cenji Biotech Inc, China) following manufacturer’s instruction, and 15 ng of the Copia-Renilla luciferase reporter was co-transfected as a normalization control. Cells were treated with the indicated reagents for 48 h after transfection. The Dual-Luciferase measurements were performed in triplicate using the Luciferase assay kit (Promega) and a LUMIstar Omega luminometer (BMG Labtech, Mornington, Australia).

CRE-Luc in ATDC5 cells = assay: CRE-Luc luciferase reporter assay; type: cell-based, mouse; details: 10 μM H89, 30 μM HL-43, 2 ng/ml IL-1β, 6 h
Procedure: as §2, with “Cells were treated with the indicated reagents for 48 h after transfection.” left out

[3] = test system: Col2a1, Acan, Mmp3, Mmp9, Mmp13 expression in primary mouse chondrocytes; assay: qRT-PCR of anabolic and catabolic factors in primary chondrocytes; type: cell-based; details: primary murine chondrocytes, 1 ng/ml IL-1β, 24 hr
Procedure: as §1
Quantitative RT-PCR was performed to measure the relative mRNA levels. RNA samples were prepared from the chondrocytes using Trizol (Takara). cDNA was generated using the Prime Script RT reverse transcriptase kit (Yeasen, Drr036a). Primers used for amplification were shown in Supplementary Table S1, GAPDH was used as the house keeping gene.

[4] = Preliminary pharmacokinetic studies in CD1 mice; type: in vivo
Procedure: To evaluate the preclinical pharmacokinetic (PK) profiles of compound HL-43 and HL-66, 36 male CD1 mice were randomly divided into four groups for PK studies. […] Blood samples were collected at 0.083, 0.25, 0.5, 1, 2, 4, 8, 12, and 24 h after administration (n = 3). Then the whole blood was centrifuged at 5500 × g for 15 min at 4 °C. After suitable sample preparation, the concentration of HL-43 and HL-66 in plasma sample was determined by Agilent HPLC-MS/MS system (Agilent Technologies, USA). Pharmacokinetic parameters were calculated by WinNonlin software version 7.0 based on non-compartmental analysis (Pharsight Corporation, Mountain View, USA). Mean plasma concentration-time curves were plotted by GraphPad Prism 7.0 (GraphPad Software Inc., CA, USA).

SMILES: Cc1ccc(-c2cc(C(F)(F)F)nn2-c2ccc(S(N)(=O)=O)cc2)cc1 [Celecoxib]
- IC50 ([1]; Mus musculus, Chondrocyte): 34.7 µM
- Mortality (zebrafish embryos; 24hpf, 0.03, n=30): 0/30
- Mortality (zebrafish embryos; 24hpf, 0.1, n=30): 7/30
- Mortality (zebrafish embryos; 24hpf, 0.3, n=30): 12/30
- Mortality (zebrafish embryos; 24hpf, 1, n=30): 18/30
- Deformities (zebrafish embryos; 72hpf, 0.03, n=30): 4/30
- Hatching (zebrafish embryos; 72hpf, 0.03, n=30): 12/30
- Deformities (zebrafish embryos; 72hpf, 0.1, n=30): 3/30
- Hatching (zebrafish embryos; 72hpf, 0.1, n=30): 8/30
- Deformities (zebrafish embryos; 72hpf, 0.3, n=30): 7/30
- Hatching (zebrafish embryos; 72hpf, 0.3, n=30): 13/30
- Deformities (zebrafish embryos; 72hpf, 1, n=30): 2/30
- Hatching (zebrafish embryos; 72hpf, 1, n=30): 3/30

SMILES: O=S(=O)(NCCNC/C=C/c1ccc(Br)cc1)c1cccc2cnccc12 [H89, reference compound]
- HL-43-induced Sox9 promoter luciferase reporter activity [2]: completely abolished
- HL-43-induced CRE luciferase reporter activity (CRE-Luc in ATDC5 cells): completely abolished

SMILES: Cc1ccc(-c2nnn(CCOc3ccc(F)cc3)c2C(=O)N[C@@H](C)c2ccc(C(=O)O)cc2)o1 [HL-66]
- Col2a1 expression (screen of EP4 antagonists) ([3]; EP4 antagonists (2 nM)): highest potency in inducing Col2a1 expression
- Mmp3 expression (screen of EP4 antagonists) ([3]; EP4 antagonists (30 μM)): reducing Mmp3 expression
- AUC0-∞ ([4]; I.V. (5 mg/kg)): 1.2365 µg·h/mL
- C0 ([4]; I.V. (5 mg/kg)): 2.5577 µg/mL
- CL ([4]; I.V. (5 mg/kg)): 0.8 L/h/kg
- Vd ([4]; I.V. (5 mg/kg)): 3.7 L/kg
- t1/2 ([4]; I.V. (5 mg/kg)): 3.2 h
- AUC0-∞ ([4]; P.O. (1 mg/kg)): 0.6725 µg·h/mL
- CL ([4]; P.O. (1 mg/kg)): 7.4 L/h/kg
- Cmax ([4]; P.O. (1 mg/kg)): 0.286 µg/mL
- Vd ([4]; P.O. (1 mg/kg)): 26.7 L/kg
- t1/2 ([4]; P.O. (1 mg/kg)): 2.5 h
- Bioavailability ([4]; oral): 10.9%
- IC50 [1]: 330 µM
